In US8568754B2, “Low-emission formaldehyde donor preparations and use thereof” (Air Liquide Sante (International), priority 2002, dated 2013):

Conditions: not told

efflux time from a DIN beaker 4 mm: 22 s
efflux time from the DIN beaker 6 mm: 6 s
SMILES: CC1CN(CN2COC(C)C2)CO1 (centres unmarked) [No. 1, N,N′-methylenebis(5-methyloxazolidine)]
